# Results from US9056851B2, “Thiolactone antibiotics” (priority 2011, dated 2015).
# Assays:
# M. smegmatis MC^2155 = assay: MIC against M. smegmatis; type: cell-based; details: Mycolicibacterium smegmatis, MC^2155, read-out: MIC (μg/ml) M. smeg
# M. tuberculosis H37Rv = assay: MIC against M. tuberculosis; type: cell-based; details: Mycobacterium tuberculosis, H37RV, read-out: MIC (μg/ml) M. tb (MIC99)
# F. tularensis LVS = assay: microbe, parasite or virus in culture; type: cell-based; details: Francisella tularensis, read-out: MIC (μg/ml) F. tu
# Y. pestis A1122 = assay: microbe, parasite or virus in culture; type: cell-based; details: Yersinia pestis, A1122, read-out: MIC (μg/ml) Y. pestis
# B. pseudomallei Bp82z66 = assay: microbe, parasite or virus in culture; type: cell-based; details: Burkholderia pseudomallei, BP82Z66, read-out: MIC (μg/ml) B. pseudomallei
# S. aureus RN4220 = assay: MIC against S. aureus RN4220 (MSSA); type: cell-based; details: Staphylococcus aureus, read-out: MIC (μg/ml) Staph. aureus RN4220 MSSA
# S. aureus BAA1762 = assay: MIC against S. aureus BAA1762 (MRSA); type: cell-based; details: Staphylococcus aureus, read-out: MIC (μg/ml) Staph. aureus BAA1762 MRSA
# E. coli NIHJ = details: cited from earlier work
# E. coli No9 = details: cited from earlier work
# E. coli 11 = details: cited from earlier work
# Shigella sonnei T1 = details: cited from earlier work
# Shigella flexneri 2b T1 = details: cited from earlier work
# Salmonella enterides T-1 = details: cited from earlier work
# Salmonella typhi = details: cited from earlier work
# Salmonella paratyphi = details: cited from earlier work
# Serratia marcescens [1] = details: cited from earlier work
# Klebsiella pneumoniae [2] = details: cited from earlier work
# M. tuberculosis = details: cited from earlier work
# Staphylococcus aureus = details: cited from earlier work
# Pasteurella multocida = details: cited from earlier work
# bacteria of Table 4 = details: broad range of bacteria (Table 4); cited from earlier work
# Serratia marcescens [3] = details: urinary tract and oral infections; cited from earlier work
# Klebsiella pneumoniae [4] = details: urinary tract and oral infections; cited from earlier work
# mammalian FAS-I enzymes = details: selectivity versus FAS-II KAS enzymes; cited from earlier work
# [5] = rats, orally and by intramuscular injection; cited from earlier work
# [6] = in vivo; cited from earlier work
# [7] = in vivo; cited from earlier work; remark: listed apart in the source
smiles,measurement,setting,value
"C=C/C(C)=C/[C@@]1(C)SC(=O)C(C)=C1O [TLM, 5R-(+)-Thiolactomycin]",MIC,M. smegmatis MC^2155,25 µg/mL
same,MIC99,M. tuberculosis H37Rv,3.13 µg/mL
same,MIC,F. tularensis LVS,2.81 µg/mL
same,MIC,Y. pestis A1122,8.09 µg/mL
same,MIC,B. pseudomallei Bp82z66,13.1 µg/mL
same,MIC,S. aureus RN4220,75 µg/mL
same,MIC,S. aureus BAA1762,75 µg/mL
same,MIC,E. coli NIHJ,200 µg/mL
same,MIC,E. coli No9,100 µg/mL
same,MIC,E. coli 11,25 µg/mL
same,MIC,Shigella sonnei T1,100 µg/mL
same,MIC,Shigella flexneri 2b T1,6.3 µg/mL
same,MIC,Salmonella enterides T-1,12.5 µg/mL
same,MIC,Salmonella typhi,12.5 µg/mL
same,MIC,Salmonella paratyphi,50 µg/mL
same,MIC,Serratia marcescens [1],100 µg/mL
same,MIC,Klebsiella pneumoniae [2],100 µg/mL
same,MIC,M. tuberculosis,25 µg/mL
same,MIC,Staphylococcus aureus,25 µg/mL
same,MIC,Pasteurella multocida,0.2 µg/mL
same,"MIC values, range over organisms",bacteria of Table 4,6 to 200 µg/mL
same,protection from infection,Serratia marcescens [3],provides protection
same,protection from infection,Klebsiella pneumoniae [4],provides protection
same,inhibition of mammalian FAS-I enzymes,mammalian FAS-I enzymes,does not inhibit
same,absorption,[5],rapidly absorbed
same,toxicity,[6],low toxicity
same,bioavailability,[7],high bioavailability
